Reference: US20260347364A1, “PYRAZOLO[4,3-F]QUINAZOLINE DERIVATIVES AS MODULATORS OF G12D MUTANT KRAS USEFUL FOR THE TREATMENT OF CANCER” (JAZZ PHARMACEUTICALS IRELAND LTD., priority 2023, published 2026)

Tests used:
KRAS G12D = target: T1, KRAS G12D (Homo sapiens, UniProt P01116, G12D); assay: HTRF nucleotide exchange assay, KRAS G12D; format: biochemical; conditions: HTRF nucleotide exchange assay (NEA), class symbols
T1 construct: aa1-188 KRAS WT, HRAS WT, NRAS WT, or KRAS containing the G12D

KRAS WT = target: T2, KRAS WT (Homo sapiens, UniProt P01116); assay: HTRF nucleotide exchange assay, KRAS WT; format: biochemical; conditions: HTRF nucleotide exchange assay (NEA), class symbols
T2 construct: aa1-188 KRAS WT
T2 sequence (P01116 1-188 isoform P01116-2): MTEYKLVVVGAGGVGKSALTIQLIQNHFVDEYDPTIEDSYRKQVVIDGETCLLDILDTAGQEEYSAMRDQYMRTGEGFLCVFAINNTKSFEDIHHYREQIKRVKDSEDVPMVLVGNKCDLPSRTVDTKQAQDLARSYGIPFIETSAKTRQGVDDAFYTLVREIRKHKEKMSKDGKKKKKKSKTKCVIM

T1 sequence (P01116 1-188 isoform P01116-2 G12D): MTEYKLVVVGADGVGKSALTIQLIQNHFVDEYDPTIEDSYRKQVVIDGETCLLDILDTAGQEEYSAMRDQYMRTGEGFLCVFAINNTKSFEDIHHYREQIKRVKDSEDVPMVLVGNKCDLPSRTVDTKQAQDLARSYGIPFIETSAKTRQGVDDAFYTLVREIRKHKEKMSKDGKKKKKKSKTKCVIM

IC50 (KRAS G12D) [nM]	IC50 (KRAS WT) [nM]	SMILES
≤ 10	≤ 10	CCc1c(F)ccc2cc(O)cc(-c3cc4nc(OC[C@@]56CCCN5C[C@H](F)C6)nc(N5CCCn6nc(C(=O)N(C)C)nc6C5)c4c4cn(C)nc34)c12 [Example 112, 8-[4-(8-ethyl-7-fluoro-3-hydroxy-1-naphthyl)-2-methyl-7-[[(2R,8S)-2-fluoro-1,2,3,5,6,7-hexahydropyrrolizin-8-yl]methoxy]pyrazolo[4,3-f]quinazolin-9-yl]-N,N-dimethyl-5,6,7,9-tetrahydro-[1,2,4]triazolo[1,5-a][1,4]diazepine-2-carboxamide]
10 to 100	10 to 100	CCc1c(F)ccc2cc(O)cc(-c3cc4nc(OC[C@@]56CCCN5C[C@H](F)C6)nc(N5CC6CCC(C5)N6CC(C)O)c4c4cn(C)nc34)c12 (stereo partly drawn) [Example 186, 5-ethyl-6-fluoro-4-[7-[[(2R,8S)-2-fluoro-1,2,3,5,6,7-hexahydropyrrolizin-8-yl]methoxy]-9-[8-(2-hydroxypropyl)-3,8-diazabicyclo[3.2.1]octan-3-yl]-2-methyl-pyrazolo[4,3-f]quinazolin-4-yl]naphthalen-2-ol]
≤ 10	≤ 10	CCc1c(F)ccc2cc(O)cc(-c3c(F)c4nc(OC[C@@]56CCCN5C[C@H](F)C6)nc(N5CCCn6nc(C(=O)N(C)C)cc6C5)c4c4cn(C)nc34)c12 [Example 87, 5-[4-(8-ethyl-7-fluoro-3-hydroxy-1-naphthyl)-5-fluoro-2-methyl-7-[[(2R,8S)-2-fluoro-1,2,3,5,6,7-hexahydropyrrolizin-8-yl]methoxy]pyrazolo[4,3-f]quinazolin-9-yl]-N,N-dimethyl-4,6,7,8-tetrahydropyrazolo[1,5-a][1,4]diazepine-2-carboxamide]

Continued, molecule first:

SMILES	IC50 (KRAS G12D) [nM]	IC50 (KRAS WT) [nM]
CCc1c(F)ccc2cc(O)cc(-c3c(F)c4nc(OCC5(CN(C)C)CCC5)nc(N5CCOCC(C)(O)C5)c4c4cn(C)nc34)c12 (stereo not shown) [Example 222, 4-[7-[[1-[(dimethylamino)methyl]cyclobutyl]methoxy]-4-(8-ethyl-7-fluoro-3-hydroxy-1-naphthyl)-5-fluoro-2-methyl-pyrazolo[4,3-f]quinazolin-9-yl]-6-methyl-1,4-oxazepan-6-ol]	≤ 10	≤ 10
CCc1c(F)ccc2cc(O)cc(-c3cc4nc(OC[C@@]56CCCN5C[C@H](F)C6)nc(N5CC6CCC(C5)N6)c4c4cn(C)nc34)c12 [Example 15]	≤ 10	10 to 100
CCc1c(F)ccc2cc(O)cc(-c3c(F)c4nc(OCC5(C)CC(OC)CN5)nc(N5CCOCC(C)(O)C5)c4c4cn(C)nc34)c12 (stereo not shown) [Example 151, 4-[4-(8-ethyl-7-fluoro-3-hydroxy-1-naphthyl)-5-fluoro-7-[(4-methoxy-2-methyl-pyrrolidin-2-yl)methoxy]-2-methyl-pyrazolo[4,3-f]quinazolin-9-yl]-6-methyl-1,4-oxazepan-6-ol]	≤ 10	≤ 10
CCc1c(F)ccc2cc(O)cc(-c3c(C)c4nc(OC[C@@]56CCCN5C[C@H](F)C6)nc(N5CCCn6nc(C(=O)N7CCCC7)cc6C5)c4c4cn(C)nc34)c12 [Example 182, [5-[4-(8-ethyl-7-fluoro-3-hydroxy-1-naphthyl)-7-[[(2R,8S)-2-fluoro-1,2,3,5,6,7-hexahydropyrrolizin-8-yl]methoxy]-2,5-dimethyl-pyrazolo[4,3-f]quinazolin-9-yl]-4,6,7,8-tetrahydropyrazolo[1,5-a][1,4]diazepin-2-yl]-pyrrolidin-1-yl-methanone]	≤ 10	≤ 10
Cc1cc2[nH]ncc2c(-c2c(C)c3nc(OCC45CCCN4CC(F)C5)nc(N4CCOCC(C)(O)C4)c3c3cn(C)nc23)c1Cl [Example 173, 4-[4-(5-chloro-6-methyl-1H-indazol-4-yl)-2,5-dimethyl-7-[[(2R,8S)-2-fluoro-1,2,3,5,6,7-hexahydropyrrolizin-8-yl]methoxy]pyrazolo[4,3-f]quinazolin-9-yl]-6-methyl-1,4-oxazepan-6-ol]	10 to 100	100 to 10000
